Measured values published in PubChem BioAssay AID256 (DTP/NCI, 2004).
“And” between values parts separate entries of the source, which are not always exact repeats. Identical values can stand only once. Inconclusive results and toxic doses are left out. How the source made its calls: active means survival T/C of 150% or more; inactive means T/C below 125% in these data.

System: CD2F1 mice, L1210 leukemia ip, survival T/C
Assay: NCI In Vivo Anticancer Drug Screen. Data for tumor model L1210 Leukemia (intraperitoneal) in CD2F1 (CDF1) mice
Conditions: endpoint: mean survival time, higher = longer survival
Procedure, shortened: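 Activity against a transplanted murine tumor was judged by comparing the compound group with a vehicle group. The outcome in the treated animals was divided by that in the controls.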

[1] = dose: 75.0 mg/kg/injection, schedule: Q01DX001 (ip), vehicle: other
[2] = dose: 150.0 mg/kg/injection, schedule: Q01DX001 (ip), vehicle: other
[3] = dose: 300.0 mg/kg/injection, schedule: Q01DX001 (ip), vehicle: other
[4] = dose: 100.0 mg/kg/injection, schedule: Q04DX003 (ip), vehicle: saline
[5] = dose: 200.0 mg/kg/injection, schedule: Q04DX003 (ip), vehicle: saline
[6] = dose: 100.0 mg/kg/injection, schedule: Q01DX009 (ip), vehicle: saline with Tween-80
[7] = dose: 200.0 mg/kg/injection, schedule: Q01DX009 (ip), vehicle: saline with Tween-80
[8] = dose: 400.0 mg/kg/injection, schedule: Q01DX009 (ip), vehicle: saline with Tween-80
[9] = dose: 50.0 mg/kg/injection, schedule: Q04DX002 (ip), vehicle: saline with Tween-80
[10] = dose: 100.0 mg/kg/injection, schedule: Q04DX002 (ip), vehicle: saline with Tween-80
[11] = dose: 200.0 mg/kg/injection, schedule: Q04DX002 (ip), vehicle: saline with Tween-80
[12] = dose: 50.0 mg/kg/injection, schedule: Q04DX003 (ip), vehicle: saline with Tween-80
[13] = dose: 100.0 mg/kg/injection, schedule: Q04DX003 (ip), vehicle: saline with Tween-80
[14] = dose: 200.0 mg/kg/injection, schedule: Q04DX003 (ip), vehicle: saline with Tween-80
[15] = dose: 100.0 mg/kg/injection, schedule: Q01DX001 (ip), vehicle: saline with Tween-80
[16] = dose: 25.0 mg/kg/injection, schedule: Q04DX003 (ip), vehicle: saline with Tween-80
[17] = dose: 200.0 mg/kg/injection, schedule: Q01DX001 (ip), vehicle: saline with Tween-80
[18] = dose: 400.0 mg/kg/injection, schedule: Q04DX003 (ip), vehicle: saline with Tween-80
[19] = dose: 400.0 mg/kg/injection, schedule: Q01DX001 (ip), vehicle: saline with Tween-80

Measured: T/C

CCN(CC)CCC(CN(C)C)C(C)=O (stereo not given)
inactive: [1] 106 % of control | [2] 103 % of control | [3] 96 % of control

COCCC1(CN2c3ccccc3Sc3ccccc32)CCN(C)C1 (stereo not given)
inactive: [4] 94 % of control | [5] 96 % of control

[O-][n+]1ccccc1C[P+](c1ccccc1)(c1ccccc1)c1ccccc1
inactive: dose: 12.5 mg/kg/injection, schedule: Q01DX009 (ip), vehicle: water 101 % of control | dose: 25.0 mg/kg/injection, schedule: Q01DX009 (ip), vehicle: water 100 % of control | dose: 50.0 mg/kg/injection, schedule: Q01DX009 (ip), vehicle: water 105 % of control | dose: 100.0 mg/kg/injection, schedule: Q01DX009 (ip), vehicle: water 96 % of control

CCOC(=O)Nc1ccc(F)cc1F
inactive: [6] 94 % of control | [7] 94 % of control | [8] 100 % of control

Nc1ncc[nH]1
inactive: dose: 50.0 mg/kg/injection, schedule: Q01DX001 (ip), vehicle: saline 110 % of control | dose: 100.0 mg/kg/injection, schedule: Q01DX001 (ip), vehicle: saline 108 % of control | dose: 200.0 mg/kg/injection, schedule: Q01DX001 (ip), vehicle: saline 110 % of control | dose: 400.0 mg/kg/injection, schedule: Q01DX001 (ip), vehicle: saline 108 % of control

Cc1c2c(c(O)c3c(O)cccc13)C(=O)C1(O)C(O)=C(C(N)=O)C(=O)CC1C2 (stereo not given)
inactive: [1] 92 % of control | [2] 94 % of control | [3] 102 % of control

O=C(COc1ccc(Cl)c(Cl)c1)NCCc1ccccn1
inactive: [6] 95 % of control | [7] 97 % of control | [8] 95 % of control

Cc1cccc(C2=N/C(=C\c3ccc(N(C)C)cc3)C(=O)O2)c1
inactive: dose: 25.0 mg/kg/injection, schedule: Q04DX002 (ip), vehicle: saline with Tween-80 102 % of control | [9] 91 % of control | [10] 94 % of control | [11] 95 % of control | dose: 400.0 mg/kg/injection, schedule: Q04DX002 (ip), vehicle: saline with Tween-80 95 % of control

CC1CCC(C(C)C2C(O)CC3C4CC=C5CC(O)CCC5(C)C4CCC32C)NC1 (stereo not given)
inactive: [12] 93 % of control | [13] 90 % of control and 96 % of control | [14] 87 % of control and 98 % of control

CN(C)N=Nc1cccc(NC(N)=O)c1
inactive: dose: 19.75 mg/kg/injection, schedule: Q01DX009 (ip), vehicle: Klucel (hydroxypropylcellulose) (HPC) 114 % of control | dose: 79.0 mg/kg/injection, schedule: Q01DX009 (ip), vehicle: Klucel (hydroxypropylcellulose) (HPC) 87 % of control

CCCP(=O)(CCC)CCC
inactive: dose: 25.0 mg/kg/injection, schedule: Q01DX001 (ip), vehicle: saline with Tween-80 94 % of control | dose: 50.0 mg/kg/injection, schedule: Q01DX001 (ip), vehicle: saline with Tween-80 96 % of control | [15] 94 % of control

CC(C)(C)NC/C(=C\c1ccccc1)C(=O)c1ccccc1
inactive: [16] 109 % of control | [12] 100 % of control | [13] 117 % of control

COc1ccccc1N=Nc1c(O)n(-c2ccccc2OC)c(=S)n(-c2ccccc2OC)c1=O
inactive: [9] 98 % of control | [15] 93 % of control | [10] 94 % of control | [17] 94 % of control | [11] 102 % of control

Clc1ccc(-c2nnc(-c3ccc(Cl)cc3)nn2)cc1
inactive: [13] 96 % of control | [14] 90 % of control | [18] 88 % of control

Cc1ccc(S)cc1
inactive: [15] 98 % of control | dose: 100.0 mg/kg/injection, schedule: Q04DX003 (ip), vehicle: saline sonified 100 % of control | [17] 90 % of control | dose: 200.0 mg/kg/injection, schedule: Q04DX003 (ip), vehicle: saline sonified 95 % of control | [19] 90 % of control | dose: 400.0 mg/kg/injection, schedule: Q04DX003 (ip), vehicle: saline sonified 95 % of control

COc1ccc(/C=C2/Cc3cccc4c([N+](=O)[O-])ccc2c34)cc1
inactive: [15] 89 % of control | [17] 86 % of control | [19] 102 % of control

C=CCOc1cccc[n+]1CC(=O)CC(O)(C(F)(F)F)C(F)(F)F
inactive: [13] 95 % of control | [14] 92 % of control | [18] 97 % of control

CCOP(=O)(NCCOC)OCC
inactive: dose: 25.0 mg/kg/injection, schedule: Q01DX009 (ip), vehicle: saline 94 % of control | [16] 101 % of control | dose: 50.0 mg/kg/injection, schedule: Q01DX009 (ip), vehicle: saline 91 % of control | [12] 94 % of control | dose: 100.0 mg/kg/injection, schedule: Q01DX009 (ip), vehicle: saline 88 % of control | [13] 101 % of control

CC(=O)Nc1cccc(OCCCOc2cccc([N+](=O)[O-])c2)c1
inactive: [13] 95 % of control | [14] 95 % of control | [18] 92 % of control

CC(=O)N(C)N=Nc1ccc([N+](=O)[O-])cc1
inactive: dose: 25.0 mg/kg/injection, schedule: Q04DX003 (ip), vehicle: Klucel (hydroxypropylcellulose) (HPC) 103 % of control | dose: 50.0 mg/kg/injection, schedule: Q04DX003 (ip), vehicle: Klucel (hydroxypropylcellulose) (HPC) 103 % of control | dose: 100.0 mg/kg/injection, schedule: Q04DX003 (ip), vehicle: Klucel (hydroxypropylcellulose) (HPC) 97 % of control | dose: 200.0 mg/kg/injection, schedule: Q04DX003 (ip), vehicle: Klucel (hydroxypropylcellulose) (HPC) 114 % of control

O=C(Nc1cccc(Cl)c1)c1ccccc1
inactive: [6] 103 % of control | [13] 91 % of control | [7] 89 % of control | [14] 110 % of control | [8] 98 % of control | [18] 94 % of control

S=C1SCCN1c1ccccc1
inactive: [6] 96 % of control | [13] 103 % of control | [7] 96 % of control | [14] 101 % of control | [8] 95 % of control | [18] 100 % of control

OCCOCCN1CCN(CCCN2c3ccccc3Sc3ccc(C(F)(F)F)cc32)CC1
inactive: dose: 6.25 mg/kg/injection, schedule: Q01DX009 (ip), vehicle: saline 121 % of control

CCCCCC(C)C1(CCCC)NC(C)(C)CC(C)O1 (stereo not given)
inactive: [4] 95 % of control | [5] 90 % of control

NS(=O)(=O)c1ccc(N=Nc2ccc([As](=O)(O)O)cc2)cc1
inactive: dose: 50.0 mg/kg/injection, schedule: Q04DX003 (ip), vehicle: saline 104 % of control | [4] 101 % of control | [5] 101 % of control

CC(C)(C)C(=O)CC(=O)C(C)(C)C
inactive: [13] 95 % of control and 94 % of control | [14] 91 % of control and 100 % of control | [18] 95 % of control

CCCCCCC(=O)O.[Pb]
inactive: [1] 107 % of control | [2] 97 % of control | [3] 103 % of control
